Assay results: patent publication US20120149735A1, “1,4-Dihydropyridine Derivatives and Their Uses” (CENTRE HOSPITALIER REGIONAL UNIVERSITAIRE DE LILLE, priority 2009, published 2012)
Like-named read-outs stand apart in the source and are kept apart here.

Key:
[1] = target: T1, hCB2 cannabinoid receptor (Homo sapiens, UniProt P34972); test: Competition binding assay, hCB2 membranes, [3H]-CP-55,940
T1 construct: purchased PerkinElmer (Belgium)
Method: hCB1 and hCB2 membranes were purchased from PerkinElmer (Belgium). […] Glass fiber filters were purchased from Whatman (Maidstone, U.K.), while Aqualuma was from PerkinElmer (Schaesberg, The Netherlands). Stock solutions of the compounds were prepared in DMSO and further diluted […] with the binding buffer to the desired concentration. Final DMSO concentrations in the assay were less than 0.1%.
The test compounds were present at varying concentrations and the non-specific binding was determined in the presence of 10 μM HU-210. After 1 h the incubation was stopped and the solutions were rapidly filtered through 0.5% PEI pretreated GF/B glass fiber filters on a M-48T Brandell cell harvester and washed twice with 5 mL ice-cold binding buffer without serum albumin. […] Assays were performed at least in triplicate.
(§1) IC50 and EC50 values were determined by non-linear regression analysis performed using the GraphPad prism 4.0 program (GraphPad Software, San Diego). The Ki values (expressed as pKi) were calculated based on the Cheng-Prusoff equation: Ki=IC50/(1+L/Kd). Statistical signification of [^35S]-GTPγS assay results was assessed using an one-way ANOVA followed by a Dunett post-test.

hCB2 receptor = target: T2, hCB2 receptor (Homo sapiens, UniProt P34972); test: [35S]-GTPγS binding assay (CB2 functional activity assay); type: biochemical; conditions: for EC50: [35S]-GTPγS binding, hCB2
T2 construct: purchased PerkinElmer (Belgium)
T2 sequence (P34972 whole entry): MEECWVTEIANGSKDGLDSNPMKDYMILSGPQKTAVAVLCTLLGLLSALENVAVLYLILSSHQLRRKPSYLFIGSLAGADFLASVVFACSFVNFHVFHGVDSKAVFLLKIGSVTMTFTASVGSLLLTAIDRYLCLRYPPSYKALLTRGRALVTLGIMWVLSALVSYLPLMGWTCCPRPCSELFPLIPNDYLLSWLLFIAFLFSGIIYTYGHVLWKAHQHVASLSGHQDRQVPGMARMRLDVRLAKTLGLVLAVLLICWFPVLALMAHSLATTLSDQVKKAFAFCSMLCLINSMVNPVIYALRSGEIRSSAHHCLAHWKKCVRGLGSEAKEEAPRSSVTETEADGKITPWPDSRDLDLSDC
Method: The Emax value is determined by a CB2 functional activity assay (19, 20).
[^35S]-GTPγS binding Assays
[^35S]-GTPγS (1173 Ci/mmol) was purchased from Amersham (Roosendaal, The Netherlands). The binding experiments were performed at 30° C. in plastic tubes containing 40 μg protein in 0.5 mL (final volume) of binding buffer (50 mM Tris-HCl, 3 mM MgCl2, 1 mM EDTA, 100 mM NaCl, 0.1% bovine serum albumin, pH 7.4) supplemented with 20 μM GDP.
The assay was initiated by the addition of [^35S]-GTPγS (0.05 nM, final concentration). The tubes were incubated for 1 h. The incubations were terminated by the addition of 5 mL ice-cold washing buffer (50 mM Tris-HCl, 3 mM MgCl2, 1 mM EDTA, 100 mM NaCl). The suspension was immediately filtered through GF/B filters using a 48-well Brandell cell harvester and washed twice with the same ice-cold buffer. The radioactivity on the filters was counted as mentioned above. Assays were performed in triplicate.
as §1

TNBS-induced colitis = TNBS-induced colitis in mice; type: in vivo, C57B16 mice; conditions: for MPO activity in colon (neutrophils content): TNBS only 20±5; for TNF-alpha mRNA expression in colon: TNBS only 26±8; for IL-1beta mRNA expression in colon: TNBS only 1610±1041; for colitis macroscopic score (Wallace criteria, scale 0 to 10): intraperitoneally once daily from 3 days before TNBS, killed 3 days after TNBS, TNBS only 3.1±0.3; for histological score (Ameho criteria, scale 0 to 6): intraperitoneally once daily, TNBS only 3.7±1
[2] = hCB2 membranes, [3H]-CP-55,940 (1 nM), 30° C., 1 h, read-out: Ki CB2
[3] = CB2 functional activity assay, basal = 100%, read-out: Emax, bound stated
[4] = percentage of stimulation of [35S]-GTPγS binding, basal value set at 100%, read-out: Functional activity at CB2 EMax
[5] = read-out: binding affinity (Ki) at the CB2 receptor

T1 sequence (P34972 whole entry): as above

Compound	Ki [1, 2]	functional character at the CB2 receptor (agonist / inverse agonist) (hCB2 receptor; CB2 functional activity assay)	Emax (hCB2 receptor; [3])	EC50 (hCB2 receptor)	Emax (hCB2 receptor; [4])	melting point	further results
CCCCCn1cc(C(=O)N[C@@H]2CCCc3ccccc32)c(=O)cc1-c1ccccc1 [Compound 15, (R)-4-oxo-1-pentyl-6-phenyl-N-3-(1-(1,2,3,4-tetrahydronaphthyl))-1,4-dihydropyridine-3-carboxamide]	0.0101 ± 0.0011 µM	inverse agonists	< 62%	0.0019 ± 0.0004 µM	42 ± 2%	139 °C	–
CCCCCn1cc(C(=O)NC23CC4CC(CC(C4)C2)C3)c(=O)c(I)c1C [Compound 52, N3-(1-Adamantyl)-5-iodo-6-methyl-4-oxo-1-pentyl-1,4-dihydropyridine-3-carboxamide]	0.009 ± 0.0016 µM	–	–	–	–	–	Ki [1, 5]: < 0.5 µM
CCCCCn1cc(C(=O)NCC23CC4CC(CC(C4)C2)C3)c(=O)cc1-c1ccccc1 [Compound 8, N3-((1-Adamantyl)methyl)-4-oxo-1-pentyl-6-phenyl-1,4-dihydropyridine-3-carboxamide]	0.0233 ± 0.0019 µM	–	–	–	–	154 °C	–
CCCCCn1cc(C(=O)N[C@H]2CCCc3ccccc32)c(=O)cc1-c1ccccc1 [Compound 16, (S)-4-oxo-1-pentyl-6-phenyl-N-3-(1-(1,2,3,4-tetrahydronaphthyl))-1,4-dihydropyridine-3-carboxamide]	0.369 ± 0.041 µM	inverse agonists	< 62%	0.06 ± 0.016 µM	48 ± 3%	139 °C	–
CCCCCn1cc(C(=O)NC23CC4CC(CC(C4)C2)C3)c(=O)cc1-c1ccc(Cl)cc1 [Compound 18, N3-(1-Adamantyl)-6-(4-chlorophenyl)-1-pentyl-4-oxo-1,4-dihydropyridine-3-carboxamide]	0.079 ± 0.007 µM	–	–	–	–	190 °C	–
CCCCCn1cc(C(=O)NN2CCCCC2)c(=O)cc1-c1ccccc1 [Compound 17, 4-oxo-1-pentyl-6-phenyl-N-3-(piperidin-1-yl)-1,4-dihydropyridine-3-carboxamide]	0.092 ± 0.007 µM	inverse agonists	< 62%	0.026 ± 0.006 µM	48 ± 2%	122 °C	–
CCCCCCn1cc(C(=O)NC23CC4CC(CC(C4)C2)C3)c(=O)cc1-c1ccccc1 [Compound 12, N3-(1-Adamantyl)-1-hexyl-4-oxo-6-phenyl-1,4-dihydropyridine-3-carboxamide]	0.0135 ± 0.0009 µM	–	–	–	–	167 °C	–
CCCCCn1cc(C(=O)NC2CCCCC2)c(=O)cc1-c1ccc(Cl)cc1 [Compound 19, 6-(4-Chlorophenyl)-N-3-cyclohexyl-4-oxo-1-pentyl-1,4-dihydropyridine-3-carboxamide]	0.078 ± 0.009 µM	inverse agonists	< 62%	0.022 ± 0.004 µM	39 ± 2%	157 °C	–
CC(NC(=O)c1cn(-c2ccccc2)c(-c2ccccc2)cc1=O)C12CC3CC(CC(C3)C1)C2 [Compound 7, (R,S)—N-3-(1-(1-Adamantyl)ethyl)-1,6-diphenyl-4-oxo-1,4-dihydropyridine-3-carboxamide]	–	–	–	–	–	> 250 °C	Ki [1, 5]: > 0.5 µM
CCCCn1cc(C(=O)NC23CC4CC(CC(C4)C2)C3)c(=O)cc1-c1ccccc1 [Compound 10, N3-(1-Adamantyl)-1-butyl-4-oxo-6-phenyl-1,4-dihydropyridine-3-carboxamide]	0.0184 ± 0.0013 µM	–	–	–	–	146 °C	–
CCCCCn1cc(C(=O)NC23CC4CC(CC(C4)C2)C3)c(=O)cc1C(C)(C)C [Compound 20, N3-(1-Adamantyl)-6-tert-butyl-1-pentyl-4-oxo-1,4-dihydropyridine-3-carboxamide]	0.029 ± 0.003 µM	agonists	> 135%	0.0122 ± 0.0025 µM	212 ± 3%	–	MPO activity in colon (neutrophils content) (TNBS-induced colitis): 10±3; TNF-alpha mRNA expression in colon (TNBS-induced colitis): 6±1; IL-1beta mRNA expression in colon (TNBS-induced colitis): 22±11; colitis macroscopic score (Wallace criteria, scale 0 to 10) (TNBS-induced colitis): 0.8±0.4; histological score (Ameho criteria, scale 0 to 6) (TNBS-induced colitis): 1.8±0.6; decrease in colitis macroscopic scores (TNBS-induced colitis; vs TNBS only): 74%; decrease of IL-1beta level in colon (TNBS-induced colitis; vs TNBS only): 99%; decrease of MPO activity (TNBS-induced colitis; vs TNBS only): 50%; decrease of TNF-alpha level in colon (TNBS-induced colitis; vs TNBS only): 79%; inhibition of colitis microscopic score (TNBS-induced colitis; vs TNBS only): 51%
CCn1cc(C(=O)NC(C)C23CC4CC(CC(C4)C2)C3)c(=O)cc1-c1ccccc1 [Compound 5, (R,S)—N-3-(1-(1-Adamantyl)ethyl)-1-ethyl-4-oxo-6-phenyl-1,4-dihydropyridine-3-carboxamide]	0.414 ± 0.061 µM	–	–	–	–	224 °C	Ki [1, 5]: < 0.5 µM
CCCCCn1cc(C(=O)NC(C)C23CC4CC(CC(C4)C2)C3)c(=O)cc1-c1ccccc1 [Compound 6, (R,S)—N-3-(1-(1-Adamantyl)ethyl)-4-oxo-1-pentyl-6-phenyl-1,4-dihydropyridine-3-carboxamide]	0.0143 ± 0.0021 µM	inverse agonists	< 62%	0.0065 ± 0.0015 µM	46 ± 3%	169 °C	Ki [1, 5]: < 0.5 µM
CCCCCn1cc(C(=O)NC2CCCCC2)c(=O)cc1C(C)(C)C [Compound 21, N3-(Cyclohexyl)-6-tert-butyl-1-pentyl-4-oxo-1,4-dihydropyridine-3-carboxamide]	0.029 ± 0.003 µM	–	–	–	–	91 °C	–
CCCCCn1cc(C(=O)NC23CC4CC(CC(C4)C2)C3)c(=O)cc1C [Compound 38, N3-(1-Adamantyl)-6-methyl-4-oxo-1-pentyl-1,4-dihydropyridine-3-carboxamide]	0.02 ± 0.003 µM	agonists	> 135%	0.0055 ± 0.0011 µM	148 ± 2%	195 °C	Ki ([1]; binding affinity (Ki) at the CB2 receptor): < 0.5 µM; MPO activity in colon (neutrophils content) (TNBS-induced colitis): 14±4; TNF-alpha mRNA expression in colon (TNBS-induced colitis): 18±4; IL-1beta mRNA expression in colon (TNBS-induced colitis): 385±192; colitis macroscopic score (Wallace criteria, scale 0 to 10) (TNBS-induced colitis): 1.8±0.7; histological score (Ameho criteria, scale 0 to 6) (TNBS-induced colitis): 2.5±0.8; decrease in colitis macroscopic scores (TNBS-induced colitis; vs TNBS only): 42%; decrease of MPO activity (TNBS-induced colitis; vs TNBS only): 34%
JWH-133 [reference compound]	–	–	–	–	–	–	colitis macroscopic score (Wallace criteria, scale 0 to 10) (TNBS-induced colitis): 2.1±0.6; histological score (Ameho criteria, scale 0 to 6) (TNBS-induced colitis): induced a decrease of histological scores; decrease in colitis macroscopic scores (TNBS-induced colitis; vs TNBS only): 34%
CCCCCn1cc(C(=O)NC23CC4CC(CC(C4)C2)C3)c(=O)cc1-c1ccccc1 [Compound 11, N3-(1-Adamantyl)-4-oxo-1-pentyl-6-phenyl-1,4-dihydropyridine-3-carboxamide]	0.004 ± 0.0004 µM	–	–	–	–	145 °C	–
CCCCCn1cc(C(=O)NC2CCCCC2)c(=O)cc1-c1ccccc1 [Compound 13, N3-(Cyclohexyl)-4-oxo-1-pentyl-6-phenyl-1,4-dihydropyridine-3-carboxamide]	0.0106 ± 0.0011 µM	inverse agonists	< 62%	0.0019 ± 0.0005 µM	62 ± 2%	120 °C	–
CCCCCn1cc(C(=O)NC2CCCc3ccccc32)c(=O)cc1-c1ccccc1 (racemic) [Compound 14, (R,S)-4-oxo-1-pentyl-6-phenyl-N-3-(1-(1,2,3,4-tetrahydronaphthyl))-1,4-dihydropyridine-3-carboxamide]	0.0309 ± 0.0033 µM	inverse agonists	< 62%	0.0057 ± 0.0007 µM	40 ± 1%	139 °C	–
CCCCCn1cc(C(=O)NC23CC4CC(C)(CC(C)(C4)C2)C3)c(=O)cc1-c1ccccc1 [Compound 9, N3-(1-(3,5-Dimethyl)adamantyl)-4-oxo-1-pentyl-6-phenyl-1,4-dihydropyridine-3-carboxamide]	0.0066 ± 0.0007 µM	inverse agonists	< 62%	0.0058 ± 0.0011 µM	41 ± 2%	133 °C	–
